Measurements reported in US5258406A, “Sulfonimidamides” (priority 1992, dated 1993).
Like-named read-outs stand apart in the source and are kept apart here.

Tested on: 6C3HED lymphosarcoma
Assay: animal or person
Format: in vivo
Conditions: for inhibition in vivo at 18.75 mg/kg: read-out: % inhibition of tumor growth, oral, 18.75 mg/kg, BIDX 8; for inhibition in vivo at 37.5 mg/kg: read-out: % inhibition of tumor growth, oral, 37.5 mg/kg, BIDX 8; for inhibition in vivo at 75 mg/kg: read-out: % inhibition of tumor growth, oral, 75 mg/kg, BIDX 8
Method: The compounds were tested in C3H mice bearing a 6C3HED lymphosarcoma, also known as the Gardner lymphosarcoma (GLS), and in a variety of human tumor xenografts in CD1 nu/nu mice, including CX-1, LX-1, HXGC3, and VRC5. The 6C3HED lymphosarcoma was obtained from the Division of Cancer Treatment, National […] Institute, Tumor Bank, maintained at E. G. and G. Mason Research (Worcester, Mass.). The CX-1 human colon carcinoma and the LX-1 human lung carcinoma xenografts were obtained from the National Cancer Institute. The HXGC3 and VRC5 human colon xenografts were obtained from Dr. P. J. Houghton, St. Jude Children's Hospital in Memphis (see Br. J. Cancer, 37, 213 (1978)). First passage tumor was stored in liquid nitrogen using standard techniques. The transplanted tumor was reestablished from the Tumor Bank every six months or as needed. The tumor was maintained by serial passage twice weekly in C3H mice.
In the procedure the tumor was removed from passage animals and minced into 1- to 3-mm square fragments using sterile techniques. Tumor pieces were checked for sterility using both Antibiotic Medium 1 and Brain Heart Infusion (Difco, Detroit, Mich.). Recipient mice were shaved and tumor pieces were implanted subcutaneously in the auxiliary region by trocar. Drug therapy on the appropriate schedule was initiated on the day after tumor implant for 6C3HED and after a seven (7) day delay for xenografts (or other delay as noted in Table 2). The compound being tested was mixed with 2.5% Emulphor EL620 from GAF Corporation (1:40 dilution in saline). Food and water were provided ad libitium. The drug was administered orally in 0.5 ml of 2.5% Emulphor (unless otherwise indicated). The tumor was measured the day after treatment ended with two dimensional measurements (width and length) of the tumor taken using automated digital calipers interfaced to a microcomputer. Approximate weight for the tumor was calculated using the following formula [Worzalla, J. F., et al., Invest. New Drugs, 8, 241 (1990], (tumor weight in mg)=(width in mm)^2 ×(length in mm)/2.
At least one control group of an equal number of mice was treated with the same volume of 2.5% Emulphor only. The percent inhibition was determined by subtracting the ratio of the mean tumor size of the test group relative to the control group from one and multiplying the result times 100.
The results of several experiments in mice bearing a 6C3HED lymphosarcoma (or other tumor where indicated) when the indicated compounds were administered are provided in Table 2. In Table 2, column 1 gives the Example number of the compound used, column 2 lists the dose level in mg/kg, column 3 provides the percent inhibition of tumor growth, column 4 gives the number of mice which died relative to the total number of animals in the group, column 5 gives the method of administration of the compound, and column 6 gives the dosage schedule. The protocol used with other tumors was the same as with the 6C3HED lymphosarcoma.

[1] = Mus musculus, 6C3HED, ip, read-out: % inhibition of tumor growth, IP, 150 mg/kg, DX 8
[2] = Mus musculus, 6C3HED, ip, read-out: % inhibition of tumor growth, IP, 300 mg/kg, DX 8
[3] = Mus musculus, 6C3HED, po, read-out: % inhibition of tumor growth, oral, 150 mg/kg, BIDX 8
[4] = Mus musculus, 6C3HED, po, read-out: % inhibition of tumor growth, oral, 300 mg/kg, BIDX 8
[5] = Mus musculus, 6C3HED, po, read-out: % inhibition of tumor growth, oral, 150 mg/kg, DX 8
[6] = Mus musculus, 6C3HED, po, read-out: % inhibition of tumor growth, oral, 300 mg/kg, DX 8

| SMILES | Tox/Tot (mice which died / total) (IP, 300 mg/kg, DX 8) | inhibition in vivo at 150 mg/kg [3] [%] | inhibition in vivo at 300 mg/kg [4] [%] | Tox/Tot (mice which died / total) (oral, 150 mg/kg, BIDX 8) | Tox/Tot (mice which died / total) (oral, 300 mg/kg, BIDX 8) | inhibition in vivo at 150 mg/kg [5] [%] | inhibition in vivo at 300 mg/kg [6] [%] | Tox/Tot (mice which died / total) (oral, 150 mg/kg, DX 8) | Tox/Tot (mice which died / total) (oral, 300 mg/kg, DX 8) | other results |
| --- | --- | --- | --- | --- | --- | --- | --- | --- | --- | --- |
| CCN=S(=O)(NC(=O)Nc1ccc(Cl)cc1)c1ccc(C)cc1 (centres unmarked) [Example 4, N-[[(4-chlorophenyl)amino]carbonyl]-N'-ethyl-4-methylbenzenesulfonimidamide] | 0/10 | 87 | 96 | 0/10 | 0/10 | – | – | – | – | Tox/Tot (mice which died / total) (IP, 150 mg/kg, DX 8): 0/10; inhibition in vivo at 150 mg/kg [1]: 10%; inhibition in vivo at 300 mg/kg [2]: 18% |
| CCCNS(=O)(=NC(=O)Nc1ccc(Cl)cc1)c1ccc(C)cc1 (centres unmarked) [Example 5] | 0/10 | – | – | – | – | 64 | 69 | 0/10 | 0/10 | Tox/Tot (mice which died / total) (IP, 150 mg/kg, DX 8): 0/10; inhibition in vivo at 150 mg/kg [1]: 34%; inhibition in vivo at 300 mg/kg [2]: 44% |
| Cc1ccc(S(=O)(=NC(C)C)NC(=O)Nc2ccc(Cl)cc2)cc1 (centres unmarked) [Example 6, N-[[(4-chlorophenyl)amino]carbonyl]-N'-(1-methylethyl)-4-methylbenzenesulfonimidamide] | – | 93 | 99 | – | 2/10 | – | – | – | – | inhibition in vivo at 18.75 mg/kg (Mus musculus, 6C3HED, po): 18%; inhibition in vivo at 37.5 mg/kg (Mus musculus, 6C3HED, po): 60%; inhibition in vivo at 75 mg/kg (Mus musculus, 6C3HED, po): 86%; Tox/Tot (mice which died / total) (oral, 18.75 mg/kg, BIDX 8): 0/10; Tox/Tot (mice which died / total) (oral, 37.5 mg/kg, BIDX 8): 0/10; Tox/Tot (mice which died / total) (oral, 75 mg/kg, BIDX 8): 0/10; % inhibition of tumor growth (oral, 150 mg/kg, BIDX 8): 99% |
| Cc1ccc(S(=O)(=NC(=O)Nc2ccc(Cl)cc2)NCC(C)C)cc1 (centres unmarked) [Example 8] | – | 97 | – | – | 10/10 | – | – | – | – | inhibition in vivo at 18.75 mg/kg (Mus musculus, 6C3HED, po): 29%; inhibition in vivo at 25 mg/kg (Mus musculus, 6C3HED, po, read-out: % inhibition of tumor growth, oral, 25 mg/kg, DX 8): 28%; inhibition in vivo at 37.5 mg/kg (Mus musculus, 6C3HED, po): 60%; inhibition in vivo at 50 mg/kg (Mus musculus, 6C3HED, po, read-out: % inhibition of tumor growth, oral, 50 mg/kg, DX 8): 31%; inhibition in vivo at 75 mg/kg (Mus musculus, 6C3HED, po): 85%; inhibition in vivo at 100 mg/kg (Mus musculus, 6C3HED, po, read-out: % inhibition of tumor growth, oral, 100 mg/kg, DX 8): 51%; Tox/Tot (mice which died / total) (oral, 18.75 mg/kg, BIDX 8): 0/10; Tox/Tot (mice which died / total) (oral, 25 mg/kg, DX 8): 0/10; Tox/Tot (mice which died / total) (oral, 37.5 mg/kg, BIDX 8): 0/10; Tox/Tot (mice which died / total) (oral, 50 mg/kg, DX 8): 0/10; Tox/Tot (mice which died / total) (oral, 75 mg/kg, BIDX 8): 0/10; Tox/Tot (mice which died / total) (oral, 100 mg/kg, DX 8): 0/10; % inhibition of tumor growth (oral, 150 mg/kg, BIDX 8): 98%; % inhibition of tumor growth (oral, 300 mg/kg, BIDX 8): TOX |
| CCCCCCNS(=O)(=NC(=O)Nc1ccc(Cl)cc1)c1ccc(C)cc1 (centres unmarked) [Example 9] | – | 65 | 79 | 0/10 | 2/10 | – | – | – | – | – |
| Cc1ccc(S(=O)(=NC(=O)Nc2ccc(Cl)cc2)NCCO)cc1 (centres unmarked) [Example 10] | – | – | – | – | – | 40 | 60 | 0/10 | 0/10 | – |
| Cc1ccc(S(=O)(=NC(=O)Nc2ccc(Cl)cc2)NCCCO)cc1 (centres unmarked) [Example 11] | – | 65 | 89 | 0/10 | 2/10 | – | – | – | – | – |
| Cc1ccc(S(=O)(=NC(=O)Nc2ccc(Cl)cc2)NCc2ccccc2)cc1 (centres unmarked) [Example 12] | – | 73 | 87 | 0/9 | 1/10 | – | – | – | – | – |
| Cc1ccc(S(=O)(=NC(=O)Nc2ccc(Cl)cc2)NCCc2ccccc2)cc1 (centres unmarked) [Example 13] | – | 39 | 48 | 0/10 | 0/10 | – | – | – | – | – |
| Cc1ccc(S(=O)(=NC(=O)Nc2ccc(Cl)cc2)Nc2ccccc2)cc1 (centres unmarked) [Example 14] | 3/10 | – | – | – | – | 0 | 5 | 0/10 | 0/10 | Tox/Tot (mice which died / total) (IP, 150 mg/kg, DX 8): 2/10; inhibition in vivo at 150 mg/kg [1]: 1%; inhibition in vivo at 300 mg/kg [2]: 38% |
| CC(=O)NS(=O)(=NC(=O)Nc1ccc(Cl)cc1)c1ccc(C)cc1 (centres unmarked) [Example 15] | 10/10 | 0 | 84 | 0/10 | 0/10 | 23 | 44 | 0/10 | 0/10 | Tox/Tot (mice which died / total) (IP, 150 mg/kg, DX 8): 0/10; % inhibition of tumor growth (IP, 300 mg/kg, DX 8): TOX; inhibition in vivo at 150 mg/kg [1]: 0% |
| CC(=O)N(C)S(=O)(=NC(=O)Nc1ccc(Cl)cc1)c1ccc(C)cc1 (centres unmarked) [Example 16, N-[[(4-chlorophenyl)amino]carbonyl]-N'-acetyl-N'-methyl-4-methylbenzenesulfonimidamide] | – | 98 | 99 | 1/10 | 1/10 | – | – | – | – | – |
| CC(=O)N(C(=O)N=[S+]([O-])(c1ccc(C)cc1)N(C)C(C)=O)c1ccc(Cl)cc1 (centres unmarked) [Example 17] | – | 83 | 96 | 0/10 | 0/10 | – | – | – | – | – |
| Cc1ccc(S(=O)(=NC(=O)Nc2ccc(Cl)cc2)N(C)C)cc1 (centres unmarked) [Example 18] | 4/8 | – | – | – | – | 45 | 63 | 0/10 | 0/10 | Tox/Tot (mice which died / total) (IP, 600 mg/kg, DX 8): 6/8; inhibition in vivo at 300 mg/kg [2]: 93%; inhibition in vivo at 600 mg/kg (Mus musculus, 6C3HED, ip, read-out: % inhibition of tumor growth, IP, 600 mg/kg, DX 8): 99% |
| Cc1ccc(S(N)(=O)=NC(=O)N(C)c2ccc(Cl)cc2)cc1 (centres unmarked) [Example 20] | – | 83 | 93 | 0/10 | 0/10 | – | – | – | – | – |
| Cc1ccc(S(=N)(=O)NC(=O)Nc2ccc(Br)cc2)cc1 (centres unmarked) [Example 22, N-[[(4-bromophenyl)amino]carbonyl]-4-methylbenzenesulfonimidamide] | – | 100 | 100 | 0/10 | 3/10 | – | – | – | – | – |
| Cc1ccc(NC(=O)N=S(N)(=O)c2ccc(C)cc2)cc1 (centres unmarked) [Example 24] | 0/10 | – | – | – | – | 10 | 40 | 0/10 | 0/10 | Tox/Tot (mice which died / total) (IP, 150 mg/kg, DX 8): 0/10; inhibition in vivo at 150 mg/kg [1]: 31%; inhibition in vivo at 300 mg/kg [2]: 52% |
| NS(=O)(=NC(=O)Nc1ccc(Cl)cc1)c1ccc(Cl)cc1 (centres unmarked) [Example 27] | – | – | – | – | – | – | – | – | – | inhibition in vivo at 25 mg/kg (Mus musculus, 6C3HED, po, read-out: % inhibition of tumor growth, oral, 25 mg/kg, BIDX 8): 39%; inhibition in vivo at 50 mg/kg (Mus musculus, 6C3HED, po, read-out: % inhibition of tumor growth, oral, 50 mg/kg, BIDX 8): 80%; inhibition in vivo at 100 mg/kg (Mus musculus, 6C3HED, po, read-out: % inhibition of tumor growth, oral, 100 mg/kg, BIDX 8): 100%; Tox/Tot (mice which died / total) (oral, 25 mg/kg, BIDX 8): 0/10; Tox/Tot (mice which died / total) (oral, 50 mg/kg, BIDX 8): 0/10; % inhibition of tumor growth (oral, 100 mg/kg, BIDX 8): 94%; % inhibition of tumor growth (oral, 200 mg/kg, BIDX 8): TOX; Tox/Tot (mice which died / total) (oral, 200 mg/kg, BIDX 8): 10/10 |
